Where two headings read alike, the source gives them in different places.
Columns and labels:
HCoV-NL63 = assay: microbe, parasite or virus in culture; assay type: cell-based; conditions: Human coronavirus NL63, read-out: HCoV-NL63 (EC50, μM)
HCoV-OC43 M^pro [1] = target: T1, HCoV-OC43 M^pro (Human coronavirus OC43, UniProt P0C6X6); assay type: binding
HCoV-229E [2] = assay: microbe, parasite or virus in culture; assay type: cell-based; conditions: Human coronavirus 229E, read-out: HCoV-229E (EC50, μM)
HCoV-229E [3] = conditions: read-out: EC50 against HCoV-229E; cited from earlier work
SARS-CoV M^pro [4] = target: T2, SARS-CoV M^pro (Severe acute respiratory syndrome coronavirus, UniProt P0C6X7); conditions: cited from earlier work
SARS-CoV-2 M^pro = conditions: cited from earlier work
SARS-CoV-2 pseudovirus = assay type: cell-based
HCoV-OC43 = assay: Combination therapy with remdesivir in HCoV-OC43 CPE assay; assay type: cell-based; conditions: combination ratios 8:1 to 1:8
SARS-CoV M^pro [5] = target: T2, SARS-CoV M^pro; assay: biochemical
HCoV-OC43 M^pro [6] = target: T1, HCoV-OC43 M^pro; assay: biochemical
MERS-CoV M^pro [7] = target: T3, MERS-CoV M^pro (Middle East respiratory syndrome-related coronavirus, UniProt K9N7C7); assay type: binding
T3 sequence (K9N7C7 3248-3553 limits assumed): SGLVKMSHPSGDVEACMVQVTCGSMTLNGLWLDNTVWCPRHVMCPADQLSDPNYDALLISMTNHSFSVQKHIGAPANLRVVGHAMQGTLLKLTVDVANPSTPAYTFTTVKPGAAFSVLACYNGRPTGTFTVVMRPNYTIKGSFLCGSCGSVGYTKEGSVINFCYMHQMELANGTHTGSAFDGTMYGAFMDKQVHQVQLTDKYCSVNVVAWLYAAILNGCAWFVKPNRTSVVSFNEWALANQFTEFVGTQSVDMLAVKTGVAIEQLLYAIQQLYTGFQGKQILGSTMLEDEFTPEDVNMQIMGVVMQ

SARS-CoV M^pro [8] = target: T2, SARS-CoV M^pro; assay type: binding
SARS-CoV-2 = conditions: read-out: SARS-CoV-2 (EC50, μM), cellular antiviral activity; CPE assay; cited from earlier work
MERS-CoV M^pro [9] = target: T3, MERS-CoV M^pro; assay: biochemical
SARS-CoV = assay: microbe, parasite or virus in culture; assay type: cell-based; conditions: Severe acute respiratory syndrome coronavirus, Vero 76, 96 h, read-out: SARS-CoV (EC50, μM)

T1 sequence (P0C6X6 3247-3549 limits assumed): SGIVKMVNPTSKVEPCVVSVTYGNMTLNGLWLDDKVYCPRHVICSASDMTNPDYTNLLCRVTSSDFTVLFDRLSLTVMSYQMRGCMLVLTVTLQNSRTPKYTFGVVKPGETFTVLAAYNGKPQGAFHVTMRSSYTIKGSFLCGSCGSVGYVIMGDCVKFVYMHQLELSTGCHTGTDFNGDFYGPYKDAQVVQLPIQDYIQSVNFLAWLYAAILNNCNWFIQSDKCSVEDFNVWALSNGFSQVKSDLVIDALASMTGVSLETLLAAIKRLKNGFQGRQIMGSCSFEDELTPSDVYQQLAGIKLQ

Question: With `CCC(CC)COC(=O)[C@H](C)N[P@](=O)(OC[C@H]1O[C@@](C#N)(c2ccc3c(N)ncnn23)[C@H](O)[C@@H]1O)Oc1ccccc1` [remdesivir] as the compound, how does the EC50 (HCoV-NL63) read?
Answer: 0.63 ± 0.041 µM

Question: What about the “HCoV-OC43 M^pro (ΔTm, °C)” value (HCoV-OC43 M^pro [1]) of the same compound?
Answer: 0.00 ± 0.02 °C

Question: And the “effect on HCoV-OC43 M^pro stability (Tm)” value (HCoV-OC43 M^pro [1])?
Answer: no effect

Question: What about the EC50 (HCoV-229E [2]) of the same compound?
Answer: 0.03 µM

Question: With `CCOC(=O)/C=C/[C@H](C[C@@H]1CCNC1=O)NC(=O)[C@@H](CC(=O)[C@@H](NC(=O)c1cc(C)on1)C(C)C)Cc1ccc(F)cc1` [rupintrivir] as the compound, how does the EC50 (HCoV-229E [3]) read?
Answer: 300 nM

Question: And the “inhibition of SARS-CoV M^pro” value (SARS-CoV M^pro [4])?
Answer: failed to inhibit

Question: What about the “inhibition of SARS-CoV-2 M^pro” value (SARS-CoV-2 M^pro) of the same compound?
Answer: failed to inhibit

Question: With `CCOC(=O)[C@H]1O[C@@H]1C(=O)N[C@@H](CC(C)C)C(=O)NCCC(C)C` [E-64d] as the compound, how does the IC50 (SARS-CoV-2 pseudovirus; read-out: IC50 of SARS-CoV-2 pseudovirus entry) read?
Answer: 910 ± 100 nM

Question: With `CC(C)(C)NC(=O)N[C@H](C(=O)N1C[C@H]2[C@@H]([C@H]1C(=O)NC(CC1CCC1)C(=O)C(N)=O)C2(C)C)C(C)(C)C` (stereo partly drawn) [boceprevir] as the compound, how does the EC50 (HCoV-NL63) read?
Answer: 16.9 ± 5.87 µM

Question: And the “antiviral effect in combination with remdesivir (combination indices)” value (HCoV-OC43)?
Answer: additive antiviral effect

Question: What about the IC50 (SARS-CoV M^pro [5]) of the same compound?
Answer: 6630 nM

Question: And the Ki (SARS-CoV M^pro [5]; KI against SARS-CoV M^pro)?
Answer: 1430 nM

Question: What about the IC50 (HCoV-OC43 M^pro [6]) of the same compound?
Answer: 9000 nM

Question: And the Ki (HCoV-OC43 M^pro [6])?
Answer: 2290 nM

Question: What about the “MERS-CoV M^pro (ΔTm, °C)” value (MERS-CoV M^pro [7]) of the same compound?
Answer: 2.46 ± 0.07 °C

Question: And the “effect on cathepsin L-mediated SARS-CoV-2 pseudovirus entry” value (SARS-CoV-2 pseudovirus)?
Answer: no effect

Question: And the “HCoV-OC43 M^pro (ΔTm, °C)” value (HCoV-OC43 M^pro [1])?
Answer: 1.02 ± 0.05 °C

Question: And the “SARS-CoV M^pro (ΔTm, °C)” value (SARS-CoV M^pro [8])?
Answer: 3.94 ± 0.13 °C

Question: And the EC50 (SARS-CoV-2)?
Answer: 1.31 ± 0.58 µM

Question: And the IC50 (MERS-CoV M^pro [9])?
Answer: 10400 nM

Question: What about the Ki (MERS-CoV M^pro [9]) of the same compound?
Answer: 1650 ± 120 nM

Question: What about the EC50 (SARS-CoV) of the same compound?
Answer: 54.2 ± 7.76 µM

Question: And the EC50 (HCoV-229E [2])?
Answer: 14.1 ± 1.5 µM

Reference: PMC7605558 (bioRxiv, 2020)
